The values that follow come from patent US20220401343A1, “ORAL CARE COMPOSITIONS FOR GUM HEALTH” (The Procter & Gamble Company, priority 2020, published 2022).

In series [1] the test system is collagen genes COL1A1 and COL1A2 in skin dermis. Kind of series: Compound Screening on Skin Dermis: collagen gene expression (microarray) after topical treatment. Type of series: in vivo, human. The note with it: dorsal forearm twice daily, four weeks, vs vehicle, retinol at 0.2%, Pal-KTTKS at 100 ppm, p-value in brackets in the cell. An excerpt:
To screen compounds, 30 to 40 female subjects with Fitzpatrick skin types I-III, aged 60-70. At Baseline, each subject was assigned to test each treatment. The products were applied to the dorsal forearm twice daily. Topical treatment with a minimally efficacious moisturizer was used as the vehicle for each test compound and as the negative control.
After four weeks of treatment, one 4-mm punch biopsy was taken from each treated site. The dermis was separated and snap-frozen in liquid nitrogen and stored at −80° C. until assayed. The frozen tissue was then processed for gene expression analysis. To determine gene expression levels, RNA was extracted, labeled with biotin, hybridized and analyzed using Affymetrix GeneTitan® U219 microarray plates according to the manufacturer's instructions.
For genomics analysis, microarray sample quality was assessed using principal components analysis and MA-plots. Treatment to negative control comparisons for the microarray data were assessed using ANOVA models fitted separately for each probe set. ANOVA model hypothesis tests were evaluated using the Empirical Bayes method available in the limma R package. A p-value cutoff of 0.05 or less was consider statistically significant.

Series [2] relates to Primary Human Gingival Fibroblasts (HGF). Kind of series: Test 1: In-Vitro Human Gingival Fibroblasts Soluble Collagen Assay (Sircol). Type of series: cell-based. The conditions noted are these: for increase in collagen productivity vs. base control: Table 7 data, difference to base control. As for the experimental part:
Stage 1: Culturing Primary Human Gingival Fibroblasts (“HGF”): Primary Human Gingival Fibroblasts (“HGF”) were collected from tooth extraction patients and washed with 5 mL of PBS (phosphate buffered saline). The tissues were chopped into small pieces and placed into 15 mL centrifuge tube. The samples were digested with equal amounts of 1 mL 8% dispase and 1 mL 6% collagenase for 1 hr at 37° C., during which time the samples need to be shaken every 15 minutes. Once the digestion process was complete, the tube was centrifuged at 1100 r.p.m. for 6 minutes at room temperature. After centrifugation, a pellet of cells was formed in the bottom of the tube separating them from the supernatant solution. Then the supernatant was discarded and the cell pellet was suspended in 3 mL of fresh Minimum Essential Medium (“MEM”, available from Thermo Fisher) culture medium then transferred to a petri dish. The petri dish with cells were placed in the incubator at 37° C. with 5% CO2 for about 10 days. The petri dish was checked for changes in medium color every two days. Fresh culture medium was replaced if changes in medium color occurred.
Stage 2: Treatment with Compositions: Sub-Culturing Human Gingival Fibroblasts: When there was 80-90% cell monolayer coverage of the petri dish, the present culture medium was removed and washed with 5 mL of PBS. 1 mL 0.25% trypsin-EDTA solution was added and the cells sat for about 1-2 minutes at 37° C. until the cells were visibly round-shaped. It was occasionally necessary to tap the petri dish to remove any sticky cells from the petri dish surface. At least 1 mL of fresh MEM culture medium was added to inactivate the trypsin and the cells are collected into a 15 mL centrifuge tube. The tube was then centrifuged at 1100 r.p.m. for 6 minutes at room temperature. The supernatant was discarded and cell pellet is re-suspend-ed in 4 mL of fresh MEM culture medium in the same centrifuge tube. Petri dishes were each placed with 1 mL cell suspension and 9 mL fresh MEM culture medium in the incubator at 37° C. with 5% CO2 for about 3-5 days until 80-90% cell monolayer coverage on the petri dishes was observed.
When there was 80-90% cell monolayer coverage on the petri dishes, cells were re-suspended in 6 mL of fresh MEM culture medium. 1 mL cell suspension and 1 mL fresh MEM culture medium were respectively added into each well of a 6-well plate. The cells were further washed with 2 mL PBS to remove any suspended cells until no suspended cells are visible. […] Cells were maintained in the incubator at 37° C. with 5% CO2 for 72 hours.
Stage 3 Soluble Collagen Assay: Soluble collagen (types I to V) levels were measured by Sircol collagen assay kit (available from Biocolor, UK). After treatment, cells were washed two times with chilled PBS and homogenized with 6M urea. The cell homogenates were centrifuged at 15,000 r.p.m. for 15 min. 100 μL of the supernatant was mixed with 1 mL of Sircol Dye Reagent for 30 minutes. During this time period, a collagen-dye complex formed and precipitated out from the soluble unbound dye. The tubes were transferred to a microcentrifuge and spun at 12,000 r.p.m. for 10 minutes. The tubes were carefully inverted and drained. 750 μL ice-cold Acid-Salt Wash Reagent was gently added to the collagen-dye pellet to remove unbound dye from the surface of the pellet and the inside surface of the microcentrifuge tube. The tube was then centrifuged at 12,000 r.p.m. for 10 minutes. The supernatant was drained into a waste container and any fluid from the lip of the tubes was removed using cotton wool buds. 250 μL of Alkali Reagent was added to each tube to fully release the collagen bound dye. 200 μL of each sample was transferred to individual wells of a 96 micro well plate, keeping a record map of the contents of each well from A1 to H12.

Setting [3] is: Table 5, 1% composition in culture medium, 72 hours.

`CC1=C(/C=C/C(C)=C/C=C/C(C)=C/CO)C(C)(C)CCC1` [Retinol, retinol]: in series [1], the “COL1A1 LFC (Log base 2 of the average Fold Change)” value was −0.10 (0.93) and the “COL1A2 LFC (Log base 2 of the average Fold Change)” value was −0.022 (0.88). Further, in series [1] (listed as retinol), the “COL1A1 LFC (Log base 2 of the average Fold Change)” value is “did not demonstrate significant regulation” and the “COL1A2 LFC (Log base 2 of the average Fold Change)” value is recorded as “did not demonstrate significant regulation”. Besides, the “increase in collagen productivity vs. base control” value in series [2] was 0.30.

In the case of TGF-B, the “Collagen Productivity (Collagen/Cell)” value in series [2] (setting [3]) is 5.17; in series [2] (Table 6, 1:100 dilution), 4.86; in series [2] (Table 9, 1:50 dilution) it was 5.17. Moreover, the “Total Cell Count Cell” value in series [2] (setting [3]) is listed as 2.60 ×10^5; in series [2] (Table 6, 1:100 dilution), 2.72 ×10^5; in series [2] (Table 7, 1:100 dilution) it was 2.72 ×10^5; in series [2] (Table 9, 1:50 dilution), 2.60 ×10^5. Also, the “Total Collagen” value amounted to 13.44 ug/100 ul in series [2] (Table 5, retinoids at 20 ppm in composition, 1% composition in culture medium, 72 hours); 13.24 ug/100 ul in series [2] (Table 7, 1:100 dilution); 13.44 ug/100 ul in series [2] (Table 9, 1:50 dilution). Besides, in series [2] (Table 7, 1:100 dilution), the “Collagen Productivity” value worked out at 4.86 ug per 10^5 cells/100 ul.

On to “palmitoyl-lys-thr-thr-lys-ser [Pal-KTTKS]”, for which, in series [2], the “increase in collagen productivity vs. base control” value was 0.24.
